From patent publication US20170290820A1, “METHODS AND COMPOSITIONS FOR TREATING BETA-THALASSEMIA AND SICKLE CELL DISEASE” (Academia Sinica, priority 2013, published 2017) come the findings set out here.

Values after ≈ are worked out from the molar mass of the structure shown. Counter-ions that a name gives are not always drawn. Like-named read-outs stand apart in the source and are kept apart here.

In series [1] the test system is primary human erythroid cells. The series can be described thus: AlamarBlue cell viability / proliferation assay. Conditions: for IC50: 3 days. (In general: The colour change of resazurin is a common sign of viable cells or microbes.)
The nature of series [2]: solubility in DMSO and H2O. The class given is physicochemical. To be noted: for water-solubility (in words): comparison.
The test system of another series is γ globin gene. The series can be described thus: γ globin gene induction by relative quantitative RT-PCR. The class given is cell-based, human. To be noted: for γ globin induction (IC50): Table 3, γ globin mRNA induction fold at the compound's IC50, 3 days; for EC (μM) induction of HU IC50 (2.3 fold): concentration inducing γ globin gene expression 2.3-fold, primary human erythroid cells. As to the method: After 3 days of drug-treatment, the total RNA was extracted by RNA Spin mini kit (Ge-Healthcare) and reverse-transcription was performed by using superscript II (Invitrogen) followed the manufactors instruction. Quantitative PCR was performed on LightCycler with using STBR green master mix followed the manufactors instruction (Roche). The absolute quantitative RT-PCR was calculated by the standard curve with supplying a known copy number of plasmids. The relative quantitative RT-PCR was normalized to the expression levels of the β-actin and compared to the mock control.
To search for new agents, which are capable of inducing the expression of γ globin, a series of naphthalimide derivatives with various substituent(s) on the naphthalene ring and the heterocyclic N-atom (A1-A14, B1-B4, C1-C5, D1, and E1-E3, FIG. 2) were synthesized. These derivatives were subjected to evaluating the γ globin induction abilities in differentiated peripheral blood mononuclear cells (PBMCs). The PBMCs isolated from the peripheral blood of donors were expanded and differentiated for a total of 14 days in a two-phase liquid culture. The resulted primary erythoid cells were then treated with different dosages of naphthalimide derivatives individually for another 3 days. The expression levels of the endogenous γ globin gene were estimated by relative quantitative RT-PCR and the proliferation rates of these cells were examined by AlamarBlue cell viability assay. […]; 2-4.5-folds induction of the γ globin gene expression in the compounds-treated cells (FIG. 3).

Where [3] appears, read: Table 1a, concentration reducing proliferation rate of primary human erythroid cells by 50%.
Where [4] appears, read: Table 3, primary human erythroid cells, proliferation reduced by 50%.
The mark [5] stands for this setting: water, H2O, read-out: solubility H2O.

`CN(C)CCCN1C(=O)c2cccc3c(N)ccc(c23)C1=O` [Compound E3, N-(3-dimethylamino-propyl)-4-amino-1,8-naphthalimide hydrochloride]: in series [1] (setting [3]), the IC50 turned out to be 11.2 µM. Also, inhibition in series [1] (setting [4]) was half-maximal at 11.2 µM (IC50). In addition, in series [2], the “water-solubility (in words)” value is given as “greatly improved water-solubility”. In series [2] (setting [5]), the solubility was above 100 mM. Moreover, in the series on γ globin gene, the “γ globin induction (IC50)” value is 2.7 fold and the “EC (μM) induction of HU IC50 (2.3 fold)” value worked out at 7.4 µM. `CN(C)CCN1C(=O)c2cccc3c(Cl)ccc(c23)C1=O` [Compound B4, N-(2-dimethylamino-ethyl)-4-chloro-1,8-naphthalimide hydrochloride]: the IC50 in series [1] (setting [3]) was 5 µM. For the same molecule, half-maximal inhibition in series [1] (setting [4]) (IC50) was put at 5 µM. In series [2], the “water-solubility (in words)” value is “greatly improved water-solubility”. Moreover, the solubility in series [2] (setting [5]) was above 100 mM. For the same molecule, in the series on γ globin gene, the “γ globin induction (IC50)” value was determined as 3.3 fold and the “EC (μM) induction of HU IC50 (2.3 fold)” value is 2.2 µM.

`O=C1c2cccc3c(Cl)ccc(c23)C(=O)N1c1cccc(Br)c1` [Compound A9, N-(3-Bromo-phenyl)-4-chloro-1,8-naphthalimide] displayed a melting point above 280 °C. The molecule further came in with an IC50 in series [1] (setting [3]) above 100 µM. For `COc1cccc(N2C(=O)c3cccc4c(Cl)ccc(c34)C2=O)c1` [Compound A7, N-(3-Methoxy-phenyl)-4-chloro-1,8-naphthalimide] the same measures were above 280 °C and above 100 µM. Regarding `CN(C)CCN1Cc2cccc3c(N)ccc(c23)C1` [BO-2560, 2-(2-(Dimethylamino)ethyl)-2,3-dihydro-1H-benzo[de]isoquinolin-6-amine], the melting point lay within 253 to 254 °C.

Turning to `O=C(O)CCCc1ccc(N2C(=O)c3cccc4c([N+](=O)[O-])ccc(c34)C2=O)cc1` [Compound A5, N-(4-Butyric acid-phenyl)-4-nitro-1,8-naphthalimide], the melting point is 254.5 to 256 °C. In addition, in series [1] (setting [3]), half-maximal inhibition (IC50) required 6.7 µM.

`O=C1c2cccc3c(Cl)ccc(c23)C(=O)N1c1cccc(Cl)c1` [Compound A10, N-(3-Chloro-phenyl)-4-chloro-1,8-naphthalimide] returned a melting point of 273 to 275 °C. In addition, the IC50 in series [1] (setting [3]) was above 100 µM. In turn, `O=C1c2cccc3c([N+](=O)[O-])ccc(c23)C(=O)N1c1ccccc1` [Compound A2, N-Phenyl-4-nitro-1,8-naphthalimide] showed a melting point above 280 °C. This molecule also registered an IC50 in series [1] (setting [3]) of 0.3 µM. The “γ globin induction (IC50)” value with γ globin gene is reported as 1.1 fold.

Molecule `CC(=O)Nc1ccc2c3c(cccc13)C(=O)N(CCN(C)C)C2=O` [BO-2559, N-(2-(2-(Dimethylamino)ethyl)-1,3-dioxo-2,3-dihydro-1H-benzo[de]isoquinolin-6-yl)acetamide] came in with a melting point of 278 to 279 °C. `O=C1c2cccc3c([N+](=O)[O-])ccc(c23)C(=O)N1c1ccc(Cl)c(Cl)c1` [Compound A3, N-(3,4-Dichloro-phenyl)-4-nitro-1,8-naphthalimide] came in with a melting point above 280 °C. Also, it took 5.2 µM to reach half-maximal inhibition in series [1] (setting [3]) (IC50). For `O=C1c2cccc3cccc(c23)C(=O)N1c1ccccc1` [Compound A1, N-Phenyl-1,8-naphthalimide], the melting point fell in the range of 218 to 220 °C. This molecule also displayed an IC50 in series [1] (setting [3]) above 100 µM. Moreover, the solubility in series [2] (DMSO, organic solvent or mixture, read-out: solubility DMSO) came to 10 mM (≈ 2730 µg/mL).

`CCNc1ccc2c3c(cccc13)CN(CCN(C)C)C2` [BO-2565, 2-(2-(dimethylamino)ethyl)-N-ethyl-2,3-dihydro-1H-benzo[de]isoquinolin-6-amine] gave a melting point of 239 to 240 °C. For `CN(C)CCN1C(=O)c2cccc3cccc(c23)C1O` (stereo not shown) [BO-2476, 2-(2-(Dimethylamino)ethyl)-3-hydroxy-2,3-dihydro-1H-benzo[de]isoquinolin-1-one], the melting point lay within 129 to 130 °C. `CCN1C(=O)c2cccc3c([N+](=O)[O-])ccc(c23)C1=O` [Compound C3, N-Ethyl-4-nitro-1,8-naphthalimide] showed a melting point of 191 to 192.5 °C. In series [1] (setting [3]), this molecule had a 50% inhibitory concentration (IC50) above 100 µM. For `CN1C(=O)c2cccc3c([N+](=O)[O-])ccc(c23)C1=O` [Compound C2, N-Methyl-4-nitro-1,8-naphthalimide] the same measures were 209 to 212.5 °C and above 100 µM.

In the case of `CN(C)CCCN1C(=O)c2cccc3c(N)ccc(c23)C1=O` (as salt: hydrochloride) [Compound E3, N-(3-dimethylamino-propyl)-4-amino-1,8-naphthalimide hydrochloride], the melting point was above 280 °C. For `O=C1c2cccc3c(Cl)ccc(c23)C(=O)N1c1cccc(C(F)(F)F)c1` [Compound A8, N-(3-Trifluoromethyl-phenyl)-4-chloro-1,8-naphthalimide], the melting point lay in the range of 278 to 279 °C. The molecule further gave an IC50 in series [1] (setting [3]) above 100 µM.

In series [1] (setting [3]), `CN1C(=O)c2cccc3c(Cl)ccc(c23)C1=O` [Compound C4, N-Methyl-4-chloro-1,8-naphthalimide] showed an IC50 above 100 µM. `CCOC(=O)CCCN1C(=O)c2cccc3c([N+](=O)[O-])ccc(c23)C1=O` [Compound D1, N-(Butyric acid ethyl ester)-4-nitro-1,8-naphthalimide] gave a melting point of 115 to 116 °C. This molecule also displayed an IC50 in series [1] (setting [3]) of 6.3 µM. Consider `CN(C)CCN1C(=O)c2cccc3c(Cl)ccc(c23)C1=O` (as salt: hydrochloride) [Compound B4, N-(2-dimethylamino-ethyl)-4-chloro-1,8-naphthalimide hydrochloride], for which the melting point is above 280 °C. `O=C1c2cccc3c(Cl)ccc(c23)C(=O)N1c1ccc(Br)cc1` [Compound A13, N-(4-Bromo-phenyl)-4-chloro-1,8-naphthalimide] registered a melting point above 280 °C. The molecule further gave a concentration for half-maximal inhibition (IC50) in series [1] (setting [3]) above 100 µM. For `O=C1c2cccc3c(Cl)ccc(c23)C(=O)N1c1ccc(F)cc1` [Compound A12, N-(4-Fluoro-phenyl)-4-chloro-1,8-naphthalimide] the same measures were 274 to 276 °C and above 100 µM. The molecule `O=C1c2cccc3c(Cl)ccc(c23)C(=O)N1c1ccc(Cl)c(Cl)c1` [Compound A14, N-(3,4-Dichloro-phenyl)-4-chloro-1,8-naphthalimide] came in with a melting point above 280 °C. The half-inhibitory concentration (IC50) in series [1] (setting [3]) is above 100 µM.

Consider `C[S+]([O-])c1ccc(-c2nc(-c3ccncc3)c(-c3ccc(F)cc3)[nH]2)cc1` (stereo not shown) [SB203580, reference compound], for which the “effect of pre-treatment on γ globin elevation triggered by S51021 and SS-2394” value in the series with γ globin gene (data not shown) was “efficiently abolished”. For `CN(C)CCN1C(=O)c2cccc3c([N+](=O)[O-])ccc(c23)C1=O` [Compound B2, N-(2-Dimethylamino-ethyl)-4-nitro-1,8-naphthalimide], the melting point is 131 to 133 °C. The molecule also gave an IC50 in series [1] (setting [3]) of 2.6 µM. The molecule `O=C1c2cccc3c(Cl)ccc(c23)C(=O)N1c1ccc(F)c(Br)c1` [Compound A11, N-(3-Bromo-4-fluoro-phenyl)-4-chloro-1,8-naphthalimide] displayed a melting point above 280 °C. In series [1] (setting [3]), the IC50 was above 100 µM. For the molecule `CN(C)CCN1Cc2cccc3c(N(C)C)ccc(c23)C1` [BO-2563, 2-(2-(Dimethylamino)ethyl)-N,N-dimethyl-2,3-dihydro-1H-benzo[de]isoquinolin-6-amine], the melting point lay in the range of 251 to 252 °C. In the case of `CCN1C(=O)c2cccc3c(Cl)ccc(c23)C1=O` [Compound C5, N-Ethyl-4-chloro-1,8-naphthalimide], the melting point was in the range of 167 to 170 °C. Also, the IC50 in series [1] (setting [3]) is above 100 µM. Molecule `CCNc1ccc2c3c(cccc13)C(=O)N(CCN(C)C)C2=O` [BO-2564, 2-(2-(Dimethylamino)ethyl)-6-(ethylamino)-1H-benzo[de]isoquinoline-1,3(2H)-dione] registered a melting point of 253 to 254 °C.

For the molecule `O=C1c2cccc3c(Cl)ccc(c23)C(=O)N1c1ccccc1` [Compound A6, N-Phenyl-4-chloro-1,8-naphthalimide], the melting point lay within 263 to 265.5 °C. The molecule also had an IC50 in series [1] (setting [3]) above 100 µM. `CN(C)CCCN1C(=O)c2cccc3c([N+](=O)[O-])ccc(c23)C1=O` [Compound B3, N-(3-Dimethylamino-propyl)-4-nitro-1,8-naphthalimide] showed an IC50 in series [1] (setting [3]) of 2.3 µM. With `CCN1C(=O)c2cccc3cccc(c23)C1=O` [Compound C1, N-Ethyl-1,8-naphthalimide], the IC50 in series [1] (setting [3]) is above 100 µM. Consider `CN(C)CCN1Cc2cccc3cccc(c23)C1=O` [BO-2477, 2-(2-(Dimethylamino)ethyl)-2,3-dihydro-1H-benzo[de]isoquinolin-1-one], for which the melting point lay in the range of 253 to 254 °C. In series [1] (FIG. 8, Example 2), the “cytotoxicity IC50 against primary erythroid cells” value is “relatively lower cytotoxicity”. The “γ globin-inducing activity, rank among compounds tested” value in the series with γ globin gene (FIG. 8) is reported as “highest γ globin-inducing activity”. Molecule `COc1cccc(N2C(=O)c3cccc4c([N+](=O)[O-])ccc(c34)C2=O)c1` [Compound A4, N-(3-Methoxy-phenyl)-4-nitro-1,8-naphthalimide] registered a melting point above 280 °C. The IC50 in series [1] (setting [3]) worked out at 21 µM.

The term IC50 denotes the midpoint of a concentration-inhibition curve. Low values mean inhibition by little substance, high ones a need for much substance. A word on the solubility: it is the dissolved amount per volume that the medium holds. Broadly, the melting point is the temperature, or range, at which the solid turns liquid.
